Results taken from patent publication US20100069335A1, “Prevention and Treatment of Ophthalmic Complications of Diabetes” (priority 2005, published 2010).

Assays:
[1] = tested on: Human lens epithelial cells (HLEC); test: Viability of human lens epithelial cells subjected to glucose-induced toxicity (Trypan Blue); assay type: cell-based; conditions: 50 mM glucose; 4 mM MSM, 0.5 mM EDTA; 16 hrs; glucose alone decreased viability by 30%
Method: Cell Culture and Treatment. Human lens epithelial […] extended life span were cultured in DMEM medium containing 0.1% gentamicin and supplemented with 20% fetal bovine serum at 37° C. in a 5% CO2-humidified atmosphere. 1.0×10^5 […] (Passage 5) were seeded in 12-well plate overnight prior to the addition of glucose, MSM or MSM/EDTA. The wells were divided into six groups of two wells. Cell viability. Cell survival was determined by Trypan Blue staining and counted with a hemocytometer. Dead cells stain blue, while live cells exclude Trypan Blue. Cell viability is represented as a percentage corresponding to the number of live cells divided by the total cells. […] DMEM+20% FBS+0.1% gentamicin • 400 mM MSM: 376 mg/10 ml PBS for stock • 50 mM EDTA (Tetrasodium Salt): 190 mg/10 ml PBS for stock, pH 7.2 • 5 M Glucose: 1800 mg/10 ml of dd H2O Experimental Procedure. 1. Seeded 0.5×10^5/ml of HLEC (Passage 5) into three 12-well plates, then incubated at 37° C. overnight. 2. Changed medium to 2% FBS DMEM medium. 3. […] They were harvested with 0.25% Trypsin-EDTA and cell viability was determined with Trypan-Blue.

[2] = tested on: rat lens organ culture; test: Glucose-induced toxicity in rat lens organ culture (RLCE); assay type: cell-based; conditions: 50 mM glucose, 4 mM MSM, 0.5 mM EDTA
Method: Animals. Male Sprague-Dawley rats weighing 200-250 g were obtained from Central Animal Care Services at the University of Texas Medical Branch. The NIH guidelines and ARVO statement for the Use of Animals in Ophthalmic and Vision Research were strictly followed for the welfare of the animals. Rats were sacrificed with using 100% carbon dioxide at a low flow rate (25-30% of the volume of the cage per minute) with two rats in a cage. After the rats stopped breathing for about 2 minutes, the eyeballs were removed. […] Experimental Procedure. 1. Sacrificed four rats, removed the eyeballs as soon as possible and put them into a tube containing PBS with 0.1% gentamicin. 2. Dissected the lenses immediately and washed with 1% penicillin/streptomycin in sterile with PBS. 3. Transferred each lens to a well of a 12-well plate (2 ml of medium per well, i.e., per lens). Each treatment was performed in 2 wells. The lenses were cultured in medium 199 containing 0.1% gentamicin at 37° C. in a 5% CO2 humidified atmosphere. Reagents as described above were added to three groups of two wells to give the following three treatments: • 50 mM glucose • 50 mM glucose+4 mM MSM • 50 mM glucose+4 mM MSM+0.5 mM EDTA One group of two wells was left untreated as a control. […] Photographs were taken using a Multidimensional Imaging System, and the level of light transparency through the lenses was determined

[3] = at 79° F.; cited from earlier work

Compound: CS(C)(=O)=O [MSM, methylsulfonylmethane]
- percent cell viability (FIG. 6) [1]: increased the percent cell viability
- lens opacification by glucose (photographs, FIG. 2) ([2]; seven days of culture): mitigated lens opacification
- light transmission through the lens, relative to the untreated control (FIG. 3) ([2]; seven days, glucose alone 45%): 68%
- water solubility [3]: 34 % w/v
